pEC50: −log10 of the molar value. ≈ marks a conversion by molar mass, not a printed value. *1 amine or outer side, *2 acyl side, *3 side chain or, on linkers, in order; H or OH if unused. Where a SMILES comes first, the peptide text is derived from it. [ ]: non-standard residue; d: D form. dAla(ψthiazole) = C[C@@H](N[*:1])c1nc(C(=O)[*:2])cs1; Trp(4-OMe) = COc1cccc2[nH]cc(C[C@H](N)C(=O)O)c12; X1 = CC(=O)[C@](C)(N[*:1])C(=O)[*:2]; Dhb = C/C=C(\N)C(=O)O; Sar = CNCC(=O)O
What was measured:
[1] = Cytotoxicity against human Huh7.5 cells; format: toxicity, cell-based, Huh-7.5
Hepatitis C virus = test: Antiviral activity against HCV infected in human Huh7.5 cells assessed as reduction in viral RNA level measured after 72 hrs by RT-PCR analysis; format: functional, organism-based, Hepacivirus hominis; settings: Huh7.5, 72 h
[2] = Selectivity index, ratio of CC50 for human Huh7.5 cells to EC50 for antiviral activity against HCV infected in human Huh7.5 cells; format: toxicity, cell-based; settings: read-out: Ratio CC50/EC50
[3] = tested on: Staphylococcus epidermidis; test: Antibacterial activity against Staphylococcus epidermidis ATCC12228 measured after 24 hrs by broth microdilution method; format: functional
Morganella morganii [4] = test: Antibacterial activity against multidrug-resistant Morganella morganii KL-225 measured after 24 hrs by broth microdilution method; format: functional
Staphylococcus aureus [5] = test: Antibacterial activity against methicillin-resistant Staphylococcus aureus R6101 measured after 24 hrs by broth microdilution method; format: functional
Staphylococcus aureus [6] = test: Antibacterial activity against methicillin-resistant Staphylococcus aureus ATCC33591 measured after 24 hrs by broth microdilution method; format: functional
Bacillus subtilis = test: Antibacterial activity against Bacillus subtilis ATCC6633 measured after 24 hrs by broth microdilution method; format: functional
Staphylococcus aureus [7] = test: Antibacterial activity against methicillin-sensitive Staphylococcus aureus ATCC29213 measured after 24 hrs by broth microdilution method; format: functional
Morganella morganii [8] = test: Antibacterial activity against beta-lactamase-producing Morganella morganii ATCC25830 measured after 24 hrs by broth microdilution method; format: functional
Influenza A virus = test: Antiviral activity against Influenza A virus A/WSN/33(H1N1) infected in HEK293T cells pretreated for 2 hrs followed by viral infection and measured after 24 hrs by Gaussia luciferase assay; format: functional, organism-based; settings: HEK-293T
Klebsiella pneumoniae = test: Antibacterial activity against Klebsiella pneumoniae ATCC700603 measured after 24 hrs by broth microdilution method; format: functional
Pseudomonas aeruginosa = test: Antibacterial activity against Pseudomonas aeruginosa ATCC27853 measured after 24 hrs by broth microdilution method; format: functional
Escherichia coli = test: Antibacterial activity against Escherichia coli measured after 24 hrs by broth microdilution method; format: functional

Compound	CC50 [1]	pEC50 (Hepatitis C virus)	selectivity ratio [2]	MIC [3]	MIC (Morganella morganii [4])	MIC (Staphylococcus aureus [5])	MIC (Staphylococcus aureus [6])	MIC (Bacillus subtilis)	MIC (Staphylococcus aureus [7])	MIC (Morganella morganii [8])	pEC50 (Influenza A virus)	MIC (Klebsiella pneumoniae)	MIC (Pseudomonas aeruginosa)	MIC (Escherichia coli)
C/C=C1\NC(=O)[C@@H](C)NC(=O)CNC(=O)[C@](C)(C(C)=O)NC(=O)[C@H](Cc2c[nH]c3cccc(OC)c23)NC(=O)c2csc(n2)[C@@H](C)NC(=O)CN(C)C1=O (cyclo([Dhb][Sar][dAla(ψthiazole)][Trp(4-OMe)][X1]G[dA]))	> 36.5 µM	5.66	> 16.6											
CO[C@H]1/C=C/O[C@@]2(C)Oc3c(C)c(O)c4c(O)c(c(/C=N/N5CCN(C)CC5)c(O)c4c3C2=O)NC(=O)/C(C)=C\C=C\[C@H](C)[C@H](O)[C@@H](C)[C@@H](O)[C@@H](C)[C@H](OC(C)=O)[C@@H]1C [RIFAMPIN]				< 0.078 µg/mL	10 µg/mL (≈ 12.2 µM)	10 µg/mL (≈ 12.2 µM)	< 0.078 µg/mL	< 0.078 µg/mL	< 0.078 µg/mL	10 µg/mL (≈ 12.2 µM)				
C=C1NC(=O)[C@@H](CC)NC(=O)CNC(=O)[C@](C)(C(C)=O)NC(=O)[C@H](Cc2c[nH]c3cccc(OC)c23)NC(=O)c2csc(n2)[C@@H](C)NC(=O)CN(C)C1=O				5 µg/mL (≈ 6.53 µM)	40 µg/mL (≈ 52.2 µM)	40 µg/mL (≈ 52.2 µM)	1.25 µg/mL (≈ 1.63 µM)	> 160 µg/mL	10 µg/mL (≈ 13.1 µM)	40 µg/mL (≈ 52.2 µM)	< 4.30	> 160 µg/mL	> 160 µg/mL	> 160 µg/mL
C[C@H]1COc2c(N3CCN(C)CC3)c(F)cc3c(=O)c(C(=O)O)cn1c23.C[C@H]1COc2c(N3CCN(C)CC3)c(F)cc3c(=O)c(C(=O)O)cn1c23.O [LEVOFLOXACIN]				0.16 µg/mL	5 µg/mL	5 µg/mL	0.078 µg/mL	< 0.078 µg/mL	0.078 µg/mL	< 0.078 µg/mL				
C/C=C1\NC(=O)[C@@H](C)NC(=O)CNC(=O)[C@](C)(C(C)=O)NC(=O)[C@H](Cc2c[nH]c3cccc(OC)c23)NC(=O)c2csc(n2)[C@@H](C)NC(=O)CNC1=O	> 200 µM	4.33	> 4.3	> 160 µg/mL	> 160 µg/mL	> 160 µg/mL	> 160 µg/mL	> 160 µg/mL	> 160 µg/mL	> 160 µg/mL	< 4.30	> 160 µg/mL	> 160 µg/mL	> 160 µg/mL
C/C=C1\NC(=O)[C@@H](CC)NC(=O)CNC(=O)[C@](C)([C@H](C)O)NC(=O)[C@H](Cc2c[nH]c3cccc(OC)c23)NC(=O)c2csc(n2)[C@@H](C)NC(=O)CN(C)C1=O	> 200 µM	4.01	> 2	1.25 µg/mL (≈ 1.6 µM)	160 µg/mL (≈ 205 µM)	40 µg/mL (≈ 51.2 µM)	2.5 µg/mL (≈ 3.2 µM)	> 160 µg/mL	20 µg/mL (≈ 25.6 µM)	80 µg/mL (≈ 102 µM)	< 4.30	> 160 µg/mL	> 160 µg/mL	> 160 µg/mL
C/C=C1\NC(=O)[C@@H](CC)NC(=O)CNC(=O)[C@](C)(C(C)=O)NC(=O)[C@H](Cc2c[nH]c3cccc(OC)c23)NC(=O)c2csc(n2)[C@@H](C)NC(=O)CNC1=O	> 106 µM	4.01	> 1.1	160 µg/mL (≈ 209 µM)	> 160 µg/mL	> 160 µg/mL	160 µg/mL (≈ 209 µM)	> 160 µg/mL	> 160 µg/mL	> 160 µg/mL	< 4.30	> 160 µg/mL	> 160 µg/mL	> 160 µg/mL
C/C=C1\NC(=O)[C@@H](CC)NC(=O)CNC(=O)[C@](C)(C(C)=O)NC(=O)[C@H](Cc2c[nH]c3cccc(OC)c23)NC(=O)c2csc(n2)[C@@H](C)NC(=O)CN(C)C1=O	> 111 µM	5.20	> 17.7	2.5 µg/mL (≈ 3.21 µM)	20 µg/mL (≈ 25.6 µM)	10 µg/mL (≈ 12.8 µM)	0.31 µg/mL (≈ 0.397 µM)	> 160 µg/mL	2.5 µg/mL (≈ 3.21 µM)	20 µg/mL (≈ 25.6 µM)		> 160 µg/mL	> 160 µg/mL	> 160 µg/mL
C/C=C1\NC(=O)[C@@H](CC)NC(=O)CNC(=O)[C@](C)([C@@H](C)O)NC(=O)[C@H](Cc2c[nH]c3cccc(OC)c23)NC(=O)c2csc(n2)[C@@H](C)NC(=O)CN(C)C1=O				0.62 µg/mL (≈ 0.793 µM)	> 160 µg/mL	40 µg/mL (≈ 51.2 µM)	1.25 µg/mL (≈ 1.6 µM)	> 160 µg/mL	10 µg/mL (≈ 12.8 µM)	160 µg/mL (≈ 205 µM)	< 4.30	> 160 µg/mL	> 160 µg/mL	> 160 µg/mL
CC(C)OC(=O)[C@H](C)N[P@@](=O)(OC[C@H]1O[C@@H](n2ccc(=O)[nH]c2=O)[C@](C)(F)[C@@H]1O)Oc1ccccc1	> 200 µM	7.22	> 3330											
CN[C@H](CC(C)C)C(=O)N[C@H]1C(=O)N[C@@H](CC(N)=O)C(=O)N[C@H]2C(=O)N[C@H]3C(=O)N[C@H](C(=O)N[C@H](C(=O)O)c4cc(O)cc(O)c4-c4cc3ccc4O)[C@H](O)c3ccc(c(Cl)c3)Oc3cc2cc(c3O[C@@H]2O[C@H](CO)[C@@H](O)[C@H](O)[C@H]2O[C@H]2C[C@](C)(N)[C@H](O)[C@H](C)O2)Oc2ccc(cc2Cl)[C@H]1O [VANCOMYCIN]				1.25 µg/mL (≈ 0.863 µM)	> 160 µg/mL	> 160 µg/mL	0.62 µg/mL (≈ 0.428 µM)	< 0.078 µg/mL	1.25 µg/mL (≈ 0.863 µM)	> 160 µg/mL				
Cc1onc(-c2ccccc2)c1C(=O)N[C@@H]1C(=O)N2[C@@H]1SC(C)(C)[C@@H]2C(=O)O [OXACILLIN]				0.16 µg/mL (≈ 0.399 µM)	> 160 µg/mL	> 160 µg/mL	80 µg/mL (≈ 199 µM)	< 0.078 µg/mL	0.078 µg/mL (≈ 0.194 µM)	40 µg/mL (≈ 99.6 µM)				
C/C=C1\NC(=O)[C@@H](C)NC(=O)CNC(=O)[C@@H](CC)NC(=O)[C@H](Cc2c[nH]c3cccc(OC)c23)NC(=O)c2csc(n2)[C@@H](C)NC(=O)CN(C)C1=O				> 160 µg/mL	> 160 µg/mL	> 160 µg/mL	> 160 µg/mL	> 160 µg/mL	> 160 µg/mL	> 160 µg/mL	< 4.30	> 160 µg/mL	> 160 µg/mL	> 160 µg/mL

Reference: ChEMBL document CHEMBL5120904, “Zelkovamycins F and G, Cyclopeptides with Cα-Methyl-threonine Residues, from an Endophytic Kitasatospora sp” (J Nat Prod, 2022)
